Measured values reported in ChEMBL document CHEMBL3875187, “Structure-activity relationship study of a small cyclic peptide H-c[Lys-Pro-Glu]-Arg-OH: a potent inhibitor of Vascular Endothelial Growth Factor interaction with Neuropilin-1” (Bioorg Med Chem, 2017).
Positions of bridges follow the written chain, without caps; N, C: chain ends. Non-standard residues stand in square brackets, D forms with d. Residues, ends and D or L forms follow the SMILES beside them. Orn = NCCC[C@H](N)C(=O)O

Experiments:
[1] = biological target: Neuropilin-1 (Rattus norvegicus, UniProt Q9QWJ9); test: Inhibition of biotin labelled VEGF165 binding to rat recombinant NRP-1/Fc chimeric protein incubated for overnight by competitive ELISA method
[2] = biological target: Neuropilin-1 (Rattus norvegicus) (UniProt Q9QWJ9); test: Inhibition of biotin labelled VEGF165 binding to rat recombinant NRP-1/Fc chimeric protein at 0.3 uM incubated for overnight by competitive ELISA method relative to control
[3] = biological target: Neuropilin-1 (Rattus norvegicus) (UniProt Q9QWJ9); test: Inhibition of biotin-labelled VEGF165 binding to rat recombinant NRP-1/Fc chimeric protein at 10 uM incubated for overnight by competitive ELISA method relative to control
[4] = biological target: Neuropilin-1 (Rattus norvegicus) (UniProt Q9QWJ9); test: Inhibition of biotin-labelled VEGF165 binding to rat recombinant NRP-1/Fc chimeric protein at 1 uM incubated for overnight by competitive ELISA method relative to control
[5] = biological target: Neuropilin-1 (Rattus norvegicus) (UniProt Q9QWJ9); test: Inhibition of biotin-labelled VEGF165 binding to rat recombinant NRP-1/Fc chimeric protein at 3 uM incubated for overnight by competitive ELISA method relative to control
[6] = Cytotoxicity against HUVEC at 10 to 1000 uM measured after 24 to 96 hrs by MTS assay; assay type: toxicity, cell-based; settings: human
[7] = Cytotoxicity against human MDA-MB-231 cells at 10 to 1000 uM measured after 24 to 96 hrs by MTS assay; assay type: toxicity, cell-based; settings: mda-mb-231, 1000 µM

| SMILES | IC50 ([1]; read-out: IC50) [µM] | inhibition [2] [%] | inhibition [3] [%] | inhibition [4] [%] | inhibition [5] [%] | IC50 ([1]; read-out: pIC50 (converted)) [µM] | Activity [6] | Activity [7] |
| --- | --- | --- | --- | --- | --- | --- | --- | --- |
| N=C(N)NCCC[C@H](NC(=O)[C@@H]1CCC(=O)NCCCC[C@@H](N)C(=O)N2CCC[C@H]2C(=O)N1)C(=O)O (H-[dK]PER-OH; lactam 1-3) | > 10 |  | 4 | 1.1 | 2.3 |  |  |  |
| N=C(N)NCCC[C@H](NC(=O)[C@@H]1CC(=O)NCCCC[C@H](N)C(=O)N2CCC[C@H]2C(=O)N1)C(=O)O (H-KPDR-OH; lactam 1-3) | > 10 |  | 14.7 | 11.8 | 12.5 |  |  |  |

The next lines start with results.

| IC50 ([1]; read-out: IC50) [µM] | inhibition [2] [%] | inhibition [3] [%] | inhibition [4] [%] | inhibition [5] [%] | IC50 ([1]; read-out: pIC50 (converted)) [µM] | SMILES | Activity [6] | Activity [7] |
| --- | --- | --- | --- | --- | --- | --- | --- | --- |
| > 10 | 14.6 | 46.6 | 27.8 | 35.4 |  | N=C(N)NCCC[C@H](NC(=O)[C@@H]1CCC(=O)NCCC[C@H](N)C(=O)N2CCC[C@H]2C(=O)N1)C(=O)O (H-[Orn]PER-OH; lactam 1-3) |  |  |
| 0.16 | 68.3 | 89 | 79 | 85.4 |  | N=C(N)NCCC[C@H](NC(=O)[C@@H]1CCCCNC(=O)CC[C@H](N)C(=O)N2CCC[C@H]2C(=O)N1)C(=O)O (H-EPKR-OH; lactam 1-3) | Non-Toxic | Non-Toxic |
| 0.89 | 30.1 | 86.8 | 46.6 | 72.2 | 1 | N=C(N)NCCC[C@H](NC(=O)CC[C@@H]1NC(=O)[C@H]2CCCN2C(=O)[C@@H](N)CCCCNC(=O)CC[C@@H](C(=O)N[C@@H](CCCNC(=N)N)C(=O)O)NC(=O)[C@H]2CCCN2C(=O)[C@H](CCCCN)NC1=O)C(=O)O |  |  |
